Reference: patent US6974870B2, “Substituted 3-amino-thieno [2,3-b]pyridine-2-carboxylic acid amide compounds and processes for preparing and their uses” (Boehringer Ingelheim Phamaceuticals, Inc., priority 2002, dated 2005)

Tests used:
human IKKβ = biological target: T1, human IKKβ (Homo sapiens, UniProt O14920); assay: IKKβ kinase inhibition assay (phosphorylation of IκBα substrate, 33P-ATP); assay type: biochemical; conditions: flag-tagged human IKKβ 0.9 μg/ml, GST-IκBα (1-54) 53 μg/ml, 250 nM ATP, 1 hour at 25° C.
T1 construct: FLAG (N)
T1 sequence (O14920 1-756): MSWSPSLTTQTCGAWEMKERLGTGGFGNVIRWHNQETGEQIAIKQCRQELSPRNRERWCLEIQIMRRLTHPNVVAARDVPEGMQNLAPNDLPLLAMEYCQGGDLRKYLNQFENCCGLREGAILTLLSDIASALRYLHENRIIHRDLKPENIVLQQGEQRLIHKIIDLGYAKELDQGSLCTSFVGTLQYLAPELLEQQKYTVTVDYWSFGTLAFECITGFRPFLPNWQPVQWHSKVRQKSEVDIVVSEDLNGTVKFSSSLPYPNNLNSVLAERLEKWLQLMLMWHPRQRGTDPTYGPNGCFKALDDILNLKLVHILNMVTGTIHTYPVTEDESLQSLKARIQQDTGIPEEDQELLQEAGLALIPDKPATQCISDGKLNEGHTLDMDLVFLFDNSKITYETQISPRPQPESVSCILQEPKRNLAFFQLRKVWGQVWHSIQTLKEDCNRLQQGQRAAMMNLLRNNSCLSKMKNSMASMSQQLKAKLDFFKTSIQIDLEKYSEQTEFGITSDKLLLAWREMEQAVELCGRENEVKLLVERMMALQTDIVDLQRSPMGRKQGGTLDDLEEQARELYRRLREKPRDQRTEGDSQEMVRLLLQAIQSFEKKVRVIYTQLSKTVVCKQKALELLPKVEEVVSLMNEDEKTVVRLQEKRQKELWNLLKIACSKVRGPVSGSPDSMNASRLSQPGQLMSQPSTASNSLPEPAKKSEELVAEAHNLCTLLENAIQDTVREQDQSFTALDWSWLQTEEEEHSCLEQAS
Experimental: (§1) The inhibition of IKKα and IKKβ by the compounds of the present invention was determined with the following assay that measures the phosphorylation of the IκBα substrate by the respective kinases. The enzymes used in the assay were N-terminally flag-tagged versions of the human IKKβ or IKKα and the substrate was a GST fusion protein with IκBα (amino acids 1-54).
(§2) The reaction mixtures (60 μl) contained 20 mM HEPES pH 7.5, 10 mM MgCl2, 2 mM MnCl2, 100 mM NaCl, 100 μM Na3VO4, 20 mM β-glycerophosphate, 1 mM DTT, 2% DMSO, 250 nM ATP, 0.4 nM [^33P]ATP (specific activity, 3000 Ci/mmol), IκBα substrate, IKK enzyme and test compound. The reaction mixtures contained either 3.6 μg/ml IKKα and 245 μg/ml IκBα or 0.9 μg/ml IKKβ and 53 μg/ml IκBα.
(§3) Reactions were initiated by adding a solution of IκBα substrate and ATP to polypropylene plates containing IKK enzyme that was pre-incubated for 5 minutes with test compound. Then the reaction mixtures were incubated for 1 hour at 25° C., placed on ice and quenched by the addition of 150 μl 10% trichloroacetic acid and 5% disodium pyrophosphate. After mixing, the entire contents of the quenched reaction mixtures were transferred to a pre-wetted Packard UniFilter filtration plate, aspirated and washed 6 times with 250 μl of ddH2O using the Packard Filtermate Harvester. Filtration plates were then air dried, supplemented with 40 μl of Microscint 20 scintillation fluid and the ^33P-labeled reaction products were quantified using the Packard TopCount scintillation counter.
(§4) Compounds were tested in three-fold serial dilutions and inhibitor concentrations to achieve 50% inhibition of enzyme activity (i.e., IC50) were derived from dose-reponse curves using SAS software (SAS Institute, Cary N.C.). A non-linear regression analysis based on the Hill equation was applied to the percent inhibition versus concentration data. In all cases, compound concentrations were verified by HPLC.

human IKKα = biological target: T2, human IKKα (Homo sapiens, UniProt O15111); assay: IKKα kinase inhibition assay (phosphorylation of IκBα substrate, 33P-ATP); assay type: biochemical; conditions: flag-tagged human IKKα 3.6 μg/ml, GST-IκBα (1-54) 245 μg/ml, 250 nM ATP, 1 hour at 25° C.
T2 construct: FLAG (N)
T2 sequence (O15111 1-745): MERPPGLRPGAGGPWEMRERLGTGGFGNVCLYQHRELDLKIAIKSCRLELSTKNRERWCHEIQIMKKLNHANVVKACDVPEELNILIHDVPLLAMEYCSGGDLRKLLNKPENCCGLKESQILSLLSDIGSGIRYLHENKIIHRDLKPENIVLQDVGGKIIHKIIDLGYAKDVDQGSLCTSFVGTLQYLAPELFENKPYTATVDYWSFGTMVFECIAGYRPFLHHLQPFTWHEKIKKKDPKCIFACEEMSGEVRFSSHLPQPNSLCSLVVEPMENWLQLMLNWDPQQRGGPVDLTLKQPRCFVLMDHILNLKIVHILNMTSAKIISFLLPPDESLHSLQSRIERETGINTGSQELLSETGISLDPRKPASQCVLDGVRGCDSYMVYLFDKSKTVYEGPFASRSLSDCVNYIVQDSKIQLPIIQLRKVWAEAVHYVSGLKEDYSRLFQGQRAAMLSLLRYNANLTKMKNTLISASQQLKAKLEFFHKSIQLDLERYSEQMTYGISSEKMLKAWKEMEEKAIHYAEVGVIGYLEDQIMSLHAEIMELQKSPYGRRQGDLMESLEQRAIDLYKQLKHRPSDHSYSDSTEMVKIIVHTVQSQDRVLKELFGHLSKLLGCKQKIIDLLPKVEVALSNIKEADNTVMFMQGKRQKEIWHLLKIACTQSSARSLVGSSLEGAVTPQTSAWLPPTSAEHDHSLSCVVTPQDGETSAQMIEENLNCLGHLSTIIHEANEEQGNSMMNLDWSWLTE
Experimental: as §1, §2, §3, §4

Compound	IC50 (human IKKβ) [µM]	IC50 (human IKKα) [µM]
CNC1CCN(c2cc(C(F)F)c3c(N)c(C(N)=O)sc3n2)CC1 [3-Amino-4-difluoromethyl-6-(4-methylamino-piperidin-1-yl)-thieno[2,3-b]pyridine-2-carboxylic acid amide]	< 1	≤ 10
CCCc1cc(N2CCC(NCc3nnn[nH]3)CC2)nc2sc(C(N)=O)c(N)c12 [3-Amino-4-propyl-6-{4-[(1H-tetrazol-5-ylmethyl)-amino]-piperidin-1-yl}-thieno[2,3-b] pyridine-2-carboxylic acid amide]	< 1	≤ 10
NC(=O)c1sc2nc(N3CCC(N)CC3)cc(/C=C/c3ccncc3)c2c1N [3-Amino-6-(4-amino-piperidin-1-yl)-4-((E)-2-pyridin-4-yl-vinyl)-thieno[2,3-b]pyridine-2-carboxylic acid amide]	< 1	≤ 10
NC(=O)c1sc2nc(N3CCC(N)CC3)cc(C3CC3)c2c1N [3-Amino-6-(4-amino-piperidin-1-yl)-4-cyclopropyl-thieno[2,3-b] pyridine-2-carboxylic acid amide]	< 1	≤ 10
CCc1cc(N2CCC(N)CC2)nc2sc(C(N)=O)c(N)c12 [3-Amino-6-(4-amino-piperidin-1-yl)-4-ethyl-thieno[2,3-b] pyridine-2-carboxylic acid amide]	< 1	≤ 10
CC(C)c1cc(N2CCC(N)CC2)nc2sc(C(N)=O)c(N)c12 [3-Amino-6-(4-amino-piperidin-1-yl)-4-isopropyl-thieno[2,3-b] pyridine-2-carboxylic acid amide]	< 1	≤ 10
Cc1cc(N2CCC(N)CC2)nc2sc(C(N)=O)c(N)c12 [3-Amino-6-(4-amino-piperidin-1-yl)-4-methyl-thieno[2,3-b] pyridine-2-carboxylic acid amide]	< 1	≤ 10
CNC(=O)c1cc(N2CCC(N)CC2)nc2sc(C(N)=O)c(N)c12 [3-Amino-6-(4-amino-piperidin-1-yl)-thieno[2,3-b]pyridine-2,4-dicarboxylic acid 2-amide 4-methylamide]	< 1	≤ 10
NC(=O)c1sc2nc(N3CCC(N)CC3)cc(C(=O)Nc3ccccc3)c2c1N [3-Amino-6-(4-amino-piperidin-1-yl)-thieno[2,3-b]pyridine-2,4-dicarboxylic acid 2-amide 4-phenylamide]	< 1	≤ 10
NC(=O)c1sc2nc(N3CCC(N)CC3)cc(C(=O)Nc3cccnc3)c2c1N [3-Amino-6-(4-amino-piperidin-1-yl)-thieno[2,3-b]pyridine-2,4-dicarboxylic acid 2-amide 4-pyridin-3-ylamide]	< 1	≤ 10
NC(=O)c1sc2nc(N3CCC(N)CC3)cc(C(=O)Nc3ccncc3)c2c1N [3-Amino-6-(4-amino-piperidin-1-yl)-thieno[2,3-b]pyridine-2,4-dicarboxylic acid 2-amide 4-pyridin-4-ylamide]	< 1	≤ 10
NC(=O)c1sc2nc(N3CCC(N)CC3)cc(C(N)=O)c2c1N [3-Amino-6-(4-amino-piperidin-1-yl)-thieno[2,3-b]pyridine-2,4-dicarboxylic acid diamide]	< 1	≤ 10

Second part, the compound after the results:

IC50 (human IKKβ) [µM]	IC50 (human IKKα) [µM]	Compound
< 1	≤ 10	CCCc1cc(N2CCC(NC3CC3)CC2)nc2sc(C(N)=O)c(N)c12 [3-Amino-6-(4-cyclopropylamino-piperidin-1-yl)-4-propyl-thieno[2,3-b] pyridine-2-carboxylic acid amide]
	≤ 10	CCCc1cc(N2CCC(NCC(O)c3ccc(C(=O)NCc4cccc(C(N)=O)c4)cc3)CC2)nc2sc(C(N)=O)c(N)c12 (stereo not drawn) [3-Amino-6-(4-{2-[4-(3-carbamoyl-benzylcarbamoyl)-phenyl]-2-hydroxy-ethylamino}-piperidin-1-yl)-4-propyl-thieno[2,3-b] pyridine-2-carboxylic acid amide]
	≤ 10	CCCc1cc(N2CC[C@@H](N)C2)nc2sc(C(N)=O)c(N)c12 [3-Amino-6-((R)-3-amino-pyrrolidin-1-yl)-4-propyl-thieno[2,3-b] pyridine-2-carboxylic acid amide]
	≤ 10	CCCc1cc(N2CCC(NCC(O)c3ccc(C(=O)NCc4cccnc4)cc3)CC2)nc2sc(C(N)=O)c(N)c12 (stereo not drawn) [3-Amino-6-[4-(2-hydroxy-2-{4-[(pyridin-3-ylmethyl)-carbamoyl]-phenyl}-ethylamino)-piperidin-1-yl]-4-propyl-thieno[2,3-b] pyridine-2-carboxylic acid amide]
	≤ 10	Cc1cc(-c2ccc([N+](=O)[O-])cc2)c2c(N)c(C(N)=O)sc2n1 [3-Amino-6-methyl-4-(4-nitro-phenyl)-thieno[2,3-b]pyridine-2-carboxylic acid amide]
	≤ 10	Cc1cc(/C=C/c2ccccc2)c2c(N)c(C(N)=O)sc2n1 [3-Amino-6-methyl-4-((E)-styryl)-thieno[2,3-b]pyridine-2-carboxylic acid amide]
	≤ 10	NC(=O)c1sc2nc(N3CCC(NCC(O)c4ccc(F)c(F)c4)CC3)cc(C(F)(F)F)c2c1N (stereo not drawn) [3-Amino-6-{4-[2-(3,4-difluoro-phenyl)-2-hydroxy-ethylamino]-piperidin-1-yl}-4-trifluoromethyl-thieno[2,3-b]pyridine-2-carboxylic acid amide]
	≤ 10	NC(=O)c1sc2nc(N3CCC(NCC(O)c4ccc(C(=O)NCc5ccccc5)cc4)CC3)cc(C(F)(F)F)c2c1N (stereo not drawn) [3-Amino-6-{4-[2-(4-benzylcarbamoyl-phenyl)-2-hydroxy-ethylamino]-piperidin-1-yl}-4-trifluoromethyl-thieno[2,3-b]pyridine-2-carboxylic acid amide]
	≤ 10	CCCc1cc(N2CCC(NCC(O)c3ccc(NS(C)(=O)=O)cc3)CC2)nc2sc(C(N)=O)c(N)c12 (stereo not drawn) [3-Amino-6-{4-[2-hydroxy-2-(4-methanesulfonylamino-phenyl)-ethylamino]-piperidin-1-yl}-4-propyl-thieno[2,3-b] pyridine-2-carboxylic acid amide]
	≤ 10	CCCc1cc(N2CCNCC2)nc2sc(C(N)=O)c(N)c12 [3-amino-6-piperazin-1-yl-4-propyl-thieno[2,3-b]pyridine-2-carboxylic acid amide]
	≤ 10	NC(=O)c1sc2nc(N3CCC(N)CC3)cc(C(=O)NCCCN3CCOCC3)c2c1N [33-Amino-6-(4-amino-piperidin-1-yl)-thieno[2,3-b]pyridine-2,4-dicarboxylic acid 2-amide 4-[(3-morpholin-4-yl-propyl)-amide]]
